Reference: patent US10577349B2 (Sanford Burnham Prebys Medical Discovery Institute, priority 2015, dated 2020)

How the values were obtained:
[1] = system: A375; assay: 48 h Cytotoxicity A375; assay type: cell-based; conditions: Homo sapiens, A-375
[2] = molecular target: EmCV Cap-dependent translation; assay: In vitro translation assay, FF-EmCV-Ren construct, cap-dependent (FF luciferase); assay type: biochemical, rabbit reticulocyte lysates
Source text: (§1) The bicistronic dual-reporter constructs that contain the firefly luciferase (FF) sequence, followed by the (encephalomyocarditis virus) EmCV and Hepatitis C virus (HCV) IRES, respectively, and the Renilla reniformis (Ren) luciferase sequence, has been previously described (Bordeleau Me., et al. Functional characterization of IRESes by an inhibitor of the RNA helicase eIF4A. Nature chemical biology. 2006; 2:213-20). For measurement of translation from the FF-EmCV-Ren and FF-HCV-Ren constructs, rabbit reticulocyte lysates (RRL) (Life Technologies, Carlsbad, Calif., USA) and the Dual-Glo (Promega, Madison, Wis., USA) read-outs were chosen. Two μl rabbit reticulocyte lysates mixed with Translation Mix 20× (-Met) and Translation Mix 20× (-Leu) in a ratio of 1:1 were pre-incubated with test compounds in 1536-well plates for 1 h at room temperature. Then, translation was started by adding 0.1 μg RNA per well and incubated for 2 h at 30° C. After a short chill phase, 2.5 μl Dual-Glo reagent 1 was added to each well and incubated for 10 min before reading the FF luciferase activity with the ViewLux uHTS Microplate Imager (Perkin Elmer, Waltham, Mass., USA). Directly after, 2.5 μl Dual-Glo reagent 2 was dispensed to each well and incubated at room temperature for 10 min before reading the Ren luciferase activity on the ViewLux. To exclude the possibility that test compounds interfere with any of the luciferase activities, a counter assay was performed in which the compounds were added after the completion of the in vitro translation.

[3] = molecular target: EmCV Cap-independent translation; assay: In vitro translation assay, FF-EmCV-Ren construct, cap-independent (Ren luciferase); assay type: biochemical, rabbit reticulocyte lysates
Source text: as §1

[4] = molecular target: HCV cap-dependent translation; assay: In vitro translation assay, FF-HCV-Ren construct, cap-dependent (FF luciferase); assay type: biochemical, rabbit reticulocyte lysates
Source text: as §1

[5] = molecular target: HCV cap-independent translation; assay: In vitro translation assay, FF-HCV-Ren construct, cap-independent (Ren luciferase); assay type: biochemical, rabbit reticulocyte lysates
Source text: as §1

Structure (SMILES) | IC50 [1] [nM] | IC50 [2] [µM] | IC50 [3] [µM] | IC50 [4] [µM] | IC50 [5] [µM]
O=C(/C=C/c1cccs1)c1c(-c2ccccc2)c2cc(Cl)ccc2[nH]c1=O [Compound 51, 6-Chloro-4-phenyl-3-(3-thiophen-2-yl-acryloyl)-1H-quinolin-2-one] | 2000 to 10000 | > 20 | > 20 | 10 to 20 | > 20
O=C(/C=C/c1ccc(Br)cn1)c1c(-c2ccccc2)c2cc(Cl)ccc2[nH]c1=O [Compound 47, 3-[3-(5-Bromo-pyridin-2-yl)-acryloyl]-6-chloro-4-phenyl-1H-quinolin-2-one] | < 2000 | 2 to 10 | 2 to 10 | 2 to 10 | 2 to 10
O=C(/C=C/c1nc2ccccc2n1Cc1ccccc1)c1c(-c2ccccc2)c2cc(Cl)ccc2n(Cc2ccccc2)c1=O [Compound 56, 1-benzyl-3-[3-(1-benzyl-1H-benzoimidazol-2-yl)-acryloyl]-6-chloro-4-phenyl-1H-quinolin-2-one] | 2000 to 10000 | 2 to 10 | > 20 | 10 to 20 | 2 to 10
COCc1cncc(/C=C/C(=O)c2c(-c3ccccc3)c3cc(Cl)ccc3[nH]c2=O)c1 [Compound 73, 3-{(2E)-3-[5-(methoxymethyl)(3-pyridyl)]prop-2-enoyl}-6-chloro-4-phenylhydroquinolin-2-one] | < 2000 | 2 to 10 | 2 to 10 | 2 to 10 | 2 to 10
Cn1ccc2cc(/C=C/C(=O)c3c(-c4ccccc4)c4cc(Cl)ccc4[nH]c3=O)ccc21 [Compound 30, 6-Chloro-3-[3-(1-methyl-1H-indol-5-yl)-acryloyl]-4-phenyl-1H-quinolin-2-one] | 2000 to 10000 | > 20 | > 20 | > 20 | > 20
O=C(/C=C/c1nc2ccccc2[nH]1)c1c(-c2ccccc2)c2cnccc2[nH]c1=O [Compound 24, 3-(3-1H-Benzoimidazol-2-yl-acryloyl)-4-phenyl-1H-[1,6]naphthyridin-2-one] | < 2000 | 2 to 10 | 2 to 10 | 10 to 20 | 10 to 20
O=C(/C=C/c1nc2ccccc2[nH]1)c1c(-c2cccs2)c2cc(Cl)ccc2[nH]c1=O [Compound 9, 3-(3-1H-Benzoimidazol-2-yl-acryloyl)-6-chloro-4-thiophen-2-yl-1H-quinolin-2-one] | 2000 to 10000 | 2 to 10 | 2 to 10 | 10 to 20 | 10 to 20
CN(C)c1ccc(-c2c(C(=O)/C=C/c3cncc(F)c3)c(=O)[nH]c3ccc(Cl)cc23)cc1 [Compound 109, 3-[(2E)-3-(5-fluoro(3-pyridyl))prop-2-enoyl]-4-[4-(dimethylamino)phenyl]-6-chlorohydroquinolin-2-one] | 2000 to 10000 | 2 to 10 | 2 to 10 | 2 to 10 | 2 to 10
COCCn1c(/C=C/C(=O)c2c(-c3ccccc3)c3cc(Cl)ccc3[nH]c2=O)nc2ccccc21 [Compound 57, 6-Chloro-3-{3-[1-(2-methoxy-ethyl)-1H-benzoimidazol-2-yl]-acryloyl}-4-phenyl-1H-quinolin-2-one] | 2000 to 10000 | 2 to 10 | 2 to 10 | 2 to 10 | 2 to 10
CCOC(=O)c1cncc(-c2c(C(=O)/C=C/c3ccccn3)c(=O)[nH]c3ccc(Cl)cc23)c1 [Compound 107, Ethyl 5-[3-((2E)-3-(2-pyridyl)prop-2-enoyl)-6-chloro-2-oxo-4-hydroquinolyl]pyridine-3-carboxylate] | 2000 to 10000 | > 20 | 10 to 20 | 10 to 20 | 10 to 20
COc1ccc(-c2c(C(=O)/C=C/c3nc4ccccc4[nH]3)c(=O)[nH]c3ccc(Cl)cc23)cc1 [Compound 3, 3-(3-1H-Benzoimidazol-2-yl-acryloyl)-6-chloro-4-(4-methoxy-phenyl)-1H-quinolin-2-one] | < 2000 | 10 to 20 | > 20 | 10 to 20 | > 20
